“And” between values parts separate entries of the source, which are not always exact repeats. Equal values may be shown once. “Also recorded” adds a separate entry of the source.
How the values were obtained:
[1] = Small animal PET/CT imaging in non-infected Lewis rats; details: for excretion in PET/CT images: healthy Lewis rats, 45 min p.i.; for Lung uptake (non-infected): non-infected Lewis rats, r.o. injection ~6 MBq, PET/CT 45 min p.i.
Method: (§1) PET and CT images were acquired with an Albira PET/SPECT/CT small animal imaging system (Bruker Biospin Corporation, Woodbridge, CT, USA). A. fumigatus infection in rats was established as described by Petrik, et al.. A group of 3 female Lewis rats (2–3 months old), healthy or lung infected, were injected retro-orbitally (r.o.) with [^68Ga] […] Animals were anesthetized with isoflurane (FORANE, Abbott Laboratories, Abbott Park, IL, USA) (2 % flow rate) and positioned prone head first in the Albira system. PET/CT imaging was started 45 min p.i. with a 10-min PET (FOV 148 mm axial) and a subsequent triple CT scanning (FOV 3 × 65 mm axial, 45 kVp, 400 μA, at 400 projections). For reconstruction, Albira software (Bruker Biosoin Corporation, Woodbridge, CZ, USA) was used involving filtered backprojection and MLEM algorithms. PMOD software (PMOD Technologies Ltd., Zurich, Switzerland) was used to analyze and view the reconstructed images.

[2] = tested on: A. fumigatus wildtype (ATCC46645); assay: In vitro uptake assay in A. fumigatus; assay type: cell-based, Aspergillus fumigatus; details: iron-starvation condition, 45 min, normalized to [^68Ga]TAFC uptake from the same experiment, n = 3
Method: For in vitro uptake studies, A. fumigatus wildtype (ATCC46645) was used. Fungal strain was cultured at 37 °C in Aspergillus minimal medium (AMM) containing 1 % (m/v) glucose as carbon source, 20 mM glutamine as nitrogen source, salts, and trace elements. Iron-sufficient media were prepared by adding FeSO4 to a final concentration of 30 μM. For iron-deficient conditions, supplementation of iron was omitted. Iron starvation was verified by the detection of extracellular siderophore production which is suppressed by iron supplementation.
Uptake assays were performed in either iron-deficient or iron-sufficient A. fumigatus wildtype cultures. In a 96-well MultiScreen Filter Plates HTS (1 μm glass fiber filter, Merck Millipore, Darmstadt, Germany), 180 μl of A. fumigatus suspended in iron-replete or iron-depleted medium was added. [^68Ga]siderophores (approx. 1 × 10^5 cpm, 80 nM) were incubated with either PBS pH 7.4 (total series) or blocking solution (10 μM [Fe]TAFC) (non-specific series) at RT for 45 min in quadriplicates. The incubation was interrupted by suction of the medium and the plate was washed twice with ice-cold TRIS-buffered saline (10 mM, pH 7.3). The filters were isolated and the remaining activities were measured in the gamma counter. The uptake was calculated as % uptake of total activity added; each assay was repeated three times. To normalize uptake variations between different fungal cultures, the uptake of each [^68Ga]siderophore was expressed as the ratio to [^68Ga]TAFC uptake from the same experiment. The mean values of three different assays were used to quantitatively compare the difference in uptake between the compounds.

A. fumigatus infection = assay: Small animal PET/CT imaging in rat IPA model; details: IPA Lewis rats (A. fumigatus lung infection), r.o. injection ~6 MBq, PET/CT 45 min p.i.
Method: as §1

[3] = Protein binding in human serum (size exclusion spin columns); details: 37 °C, n = 3
Method: At selected time points, 25 μl of serum aliquots was applied on size exclusion spin columns MicroSpin™ G-50 (GE Healthcare, Vienna, Austria). Columns were centrifuged at 2000 rcf for 2 min to separate protein bound radiotracer (eluate) from non-protein bound radiotracer (column). Protein binding ability was determined by measuring activities of column and eluate in the gamma counter.

[4] = Stability in fresh human serum (RP-HPLC, %RCP); details: 37 °C, n = 3
Method: (§2) [^68Ga]siderophore (50 μl, 2 nmol) was incubated in 450 μl PBS or human serum at 37 °C. At each time point, aliquot of PBS was injected directly to RP-HPLC whereas serum aliquot was mixed with MeOH, vortexed, and centrifuged at 20,000 rcf for 2 min. Supernatant was diluted with H2O and subsequently analyzed by RP-HPLC. The stability was presented as %RCP of radiotracer (n = 3).

[5] = Biodistribution in healthy BALB/c mice; details: 90 min p.i.; for excretion / blood levels: healthy BALB/c mice, i.v.; for blood levels: n = 3
Method: At 90 min post injetion (p.i.), mice were sacrified by cervical dislocation. Organs and tissues (blood, spleen, pancrease, stomach, intestine, kidneys, liver, heart, lung, muscle, femur) were collected and weighed. Radioactivities accumulated by tissues were measured in the gamma counter. The obtained values were expressed as the percentage of injected dose per gram tissue (%ID/g). Urine sample from each animal was injected to RP-HPLC for analysis of urinary metabolic profile of [^68Ga]siderophore.

[6] = Stability in PBS pH 7.4 (RP-HPLC, %RCP); details: PBS pH 7.4, 37 °C, n = 3
Method: as §2

[7] = tested on: A. terreus wildtype strain; assay: In vitro uptake assay in A. terreus (lacks the MirB transporter); assay type: cell-based, Aspergillus terreus
Method: To confirm the specificity of uptake of TAFC derivatives by A. fumigatus via the MirB transporter, A. terreus, which lacks the MirB transporter, was used for in vitro uptake assay. A. terreus was grown in either iron-deficient or iron-sufficient cultures. Uptake studies were performed as described for A. fumigatus and expressed as % uptake of total activity added.

Compound	Lung uptake (non-infected) [1] [%ID/g]	uptake ratio to [^68Ga]TAFC [2]	Protein binding (%) ([3]; incubation time 30 min)	Protein binding (%) ([3]; incubation time 60 min)	Protein binding (%) ([3]; incubation time 120 min)	Stability in serum (%) ([4]; 30 min)	Stability in serum (%) ([4]; 60 min)	Stability in serum (%) ([4]; 120 min)	species detected in urine (RP-HPLC urinary metabolic profile) ([5]; BALB/c mice)	excretion [5]	blood levels [5] [%ID/g]	Stability in PBS (%) ([6]; 30 min)	Stability in PBS (%) ([6]; 60 min)	Stability in PBS (%) ([6]; 120 min)	also measured
CCCC(=O)NC1CCCN(O)C(=O)C=C(C)CCOC(=O)C(NC(C)=O)CCCN(O)C(=O)C=C(C)CCOC(=O)C(NC(C)=O)CCCN(O)C(=O)C=C(C)CCOC1=O (centres unmarked) (68Ga complex, metal not drawn) [DABuFC, diacetylbutanoyl(FSC)]	0.23 ± 0.03	0.87	2.63 ± 1.03	2.92 ± 1.11	3.61 ± 1.19	99.58 ± 0.04	99.59 ± 0.20	99.60 ± 0.14	only intact	rapid renal excretion	< 0.1	99.87 ± 0.07	99.85 ± 0.08	99.79 ± 0.14	excretion in PET/CT images ([1]; listed as [^68Ga]DABuFC): excreted rapidly via the urinary system; also recorded: certain hepatobiliary excretion; uptake ratio to [^68Ga]TAFC ([2]; listed as [^68Ga]DABuFC): around 1; Lung uptake (infected) (A. fumigatus infection): 0.79 ± 0.15 %ID/g; retention in the blood, spleen, and pancreas in comparison with [^68Ga]TAFC ([5]; BALB/c mice): Slightly lower retention
CC1=CC(=O)N(O)CCCC(NC(=O)CCC(=O)O)C(=O)OCCC(C)=CC(=O)N(O)CCCC(NC(=O)CCC(=O)O)C(=O)OCCC(C)=CC(=O)N(O)CCCC(NC(=O)CCC(=O)O)C(=O)OCC1 (centres unmarked) (68Ga complex, metal not drawn) [FSC(suc)3, trisuccinyl(FSC)]	0.21 ± 0.03	0.01	2.53 ± 0.63	2.96 ± 0.21	2.60 ± 0.62	99.59 ± 0.08	99.43 ± 0.17	99.36 ± 0.08	only intact	rapid renal excretion	< 0.1	99.85 ± 0.07	99.77 ± 0.12	99.72 ± 0.09	excretion in PET/CT images [1]: excreted rapidly via the urinary system; uptake ratio to [^68Ga]TAFC ([2]; listed as [^68Ga]FSC(suc)3): less than 0.05; Lung uptake (infected) (A. fumigatus infection; listed as [^68Ga]FSC(suc)3): 0.31 ± 0.04 %ID/g and 0.3 %ID/g; retention in the intestine and kidneys in comparison with [^68Ga]TAFC ([5]; BALB/c mice): Slightly lower retention
C/C1=C/C(=O)N(O)CCCC(N)C(=O)OCC/C(C)=C\C(=O)N(O)CCCC(N)C(=O)OCC/C(C)=C\C(=O)N(O)CCCC(N)C(=O)OCC1 (centres unmarked) (68Ga complex, metal not drawn) [FSC, fusarinine C]	–	1.37	–	–	–	–	–	–	–	–	–	–	–	–	uptake ratio to [^68Ga]TAFC ([2]; listed as [^68Ga]FSC): ~1.4; Uptake in A. terreus in iron-replete condition ([7]; iron-replete condition): 2 % of total activity added; Uptake in A. terreus with TAFC blocking ([7]; iron-starvation condition with TAFC blocking): 28 % of total activity added; uptake in A. terreus ([7]; iron-starvation condition, 45 min, n = 3): > 30 % of total activity added
